The nature of experiment [1]: Selectivity ratio of Ki for delta opioid receptor in mouse whole brain membranes without cerebellum to Ki for kappa opioid receptor in guinea pig cerebellum membranes. The class given is cell membranes.
Experiment [2] can be described thus: Selectivity ratio of Ki for mu opioid receptor in mouse whole brain membranes without cerebellum to Ki for kappa opioid receptor in guinea pig cerebellum membranes. The class given is cell membranes.
The target in experiment [3] is Kappa-type opioid receptor (Cavia porcellus, UniProt P41144). In words: Displacement of [3H]U-69,593 from kappa opioid receptor in guinea pig cerebellum membranes. Format: cell membranes, Membrane. (In general: Loss of bound radioactivity is the signal in a displacement assay; it reports binding, not function.)
Kappa-type opioid receptor, sequence (P41144 whole entry): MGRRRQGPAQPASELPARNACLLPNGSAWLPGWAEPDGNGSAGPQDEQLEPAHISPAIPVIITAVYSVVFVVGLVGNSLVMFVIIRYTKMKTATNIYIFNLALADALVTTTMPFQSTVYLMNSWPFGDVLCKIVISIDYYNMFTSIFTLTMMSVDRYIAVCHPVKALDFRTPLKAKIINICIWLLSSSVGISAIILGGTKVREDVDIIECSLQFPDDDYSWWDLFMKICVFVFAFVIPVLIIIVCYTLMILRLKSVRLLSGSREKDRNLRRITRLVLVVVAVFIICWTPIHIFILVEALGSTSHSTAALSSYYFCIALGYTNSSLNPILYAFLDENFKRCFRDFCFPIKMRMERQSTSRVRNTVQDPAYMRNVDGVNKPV
The target of experiment [4] is Delta-type opioid receptor (Mus musculus, UniProt P32300). In words: Displacement of [3H]DPDPE from delta opioid receptor in mouse whole brain membranes without cerebellum. The class given is cell membranes, Membrane.
Delta-type opioid receptor, sequence (P32300 whole entry): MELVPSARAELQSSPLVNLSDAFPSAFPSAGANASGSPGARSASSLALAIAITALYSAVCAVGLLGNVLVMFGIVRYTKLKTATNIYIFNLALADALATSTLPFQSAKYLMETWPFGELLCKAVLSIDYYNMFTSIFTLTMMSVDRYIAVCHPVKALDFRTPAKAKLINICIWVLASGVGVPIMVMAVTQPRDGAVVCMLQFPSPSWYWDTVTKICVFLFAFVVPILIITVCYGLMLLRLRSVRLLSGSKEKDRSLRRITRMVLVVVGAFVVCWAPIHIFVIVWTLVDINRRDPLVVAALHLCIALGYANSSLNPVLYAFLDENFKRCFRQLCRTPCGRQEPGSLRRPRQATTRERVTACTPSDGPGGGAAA
Experiment [5] concerns the target Mu-type opioid receptor (Mus musculus, UniProt P42866). In words: Displacement of [3H]DAMGO from mu opioid receptor in mouse whole brain membranes without cerebellum. Format: cell membranes, Membrane.

Mu-type opioid receptor, sequence (P42866 whole entry): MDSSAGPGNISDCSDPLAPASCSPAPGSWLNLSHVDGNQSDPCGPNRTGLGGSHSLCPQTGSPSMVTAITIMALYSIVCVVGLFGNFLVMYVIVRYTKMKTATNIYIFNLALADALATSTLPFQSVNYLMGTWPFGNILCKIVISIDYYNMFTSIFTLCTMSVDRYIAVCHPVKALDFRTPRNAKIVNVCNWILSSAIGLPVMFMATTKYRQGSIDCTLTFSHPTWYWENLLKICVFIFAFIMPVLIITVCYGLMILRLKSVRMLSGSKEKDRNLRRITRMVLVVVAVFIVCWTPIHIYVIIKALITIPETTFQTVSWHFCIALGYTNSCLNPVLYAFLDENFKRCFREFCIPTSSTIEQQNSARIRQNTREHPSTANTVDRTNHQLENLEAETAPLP

As to `CN(C(=O)/C=C/c1ccoc1)[C@@H]1CC[C@@]2(O)[C@H]3CC4=C(C[C@H](O)CC4)[C@@]2(CCN3CC2CC2)C1`, the Ratio Ki in experiment [1] was found to be 65; in experiment [2], 79. In addition, the results for the Ki in experiment [3], in experiment [4] and in experiment [5] were 0.733 nM, 47.5 nM and 57.6 nM, respectively.

Regarding `CN(C(=O)/C=C/c1ccoc1)[C@H]1CC[C@@]2(O)[C@H]3CC4=C(CC(=O)CC4)[C@@]2(CCN3CC2CC2)C1`, the Ratio Ki in experiment [1] was 20; in experiment [2], 12. The Ki (usually the equilibrium dissociation constant of an inhibitor or competing ligand from its target) in experiment [3] was determined as 2.23 nM; in experiment [4] it was 44.5 nM; in experiment [5] it was 26 nM.

Consider `CN(C(=O)/C=C/c1ccoc1)[C@H]1CC[C@@]2(O)[C@H]3Cc4cccc5c4[C@@]2(CCN3CC2CC2)[C@H]1O5`, for which the figures for the Ratio Ki in experiment [1] and in experiment [2] were 146 and 26, respectively. Moreover, the Ki in experiment [3] was 0.34 nM; in experiment [4], 49.5 nM; in experiment [5], 8.88 nM.

Turning to `CN(C(=O)/C=C/c1ccoc1)[C@H]1CC[C@@]2(O)[C@H]3CC4=C(C[C@H](O)CC4)[C@@]2(CCN3CC2CC2)C1`, the Ratio Ki was determined as 7.7 in experiment [1] and 4.8 in experiment [2]. Also, the Ki in experiment [3] is 1.1 nM; in experiment [4], 8.45 nM; in experiment [5] it was 5.26 nM.

Turning to `CN(C(=O)/C=C/c1ccoc1)[C@H]1CC[C@@]2(O)[C@H]3Cc4ccc(O)cc4[C@@]2(CCN3CC2CC2)C1`, the values for the Ratio Ki in experiment [1] and in experiment [2] were 3.8 and 2, respectively. For the same molecule, the Ki in experiment [3] stood at 0.163 nM; in experiment [4], 0.623 nM; in experiment [5] it was 0.324 nM.

Regarding `CN(C(=O)/C=C/c1ccoc1)[C@H]1CC[C@@]2(O)[C@H]3CC4=C(C[C@@H](O)CC4)[C@@]2(CCN3CC2CC2)C1`, the Ratio Ki came out at 19 in experiment [1] and 12 in experiment [2]. The Ki in experiment [3] stood at 0.451 nM; in experiment [4], 8.66 nM; in experiment [5] it was 5.49 nM.

In the case of `CN(C(=O)/C=C/c1ccoc1)[C@@H]1CC[C@@]2(O)[C@H]3Cc4ccccc4[C@@]2(CCN3CC2CC2)C1`, the Ratio Ki in experiment [1] came to 95; in experiment [2], 36. For the same molecule, the Ki came out at 0.34 nM in experiment [3], 32.4 nM in experiment [4] and 12.3 nM in experiment [5].

As for `CN(C(=O)/C=C/c1ccoc1)[C@H]1CC[C@H]2[C@H]3CC4=C(CCCC4)[C@@]2(CCN3CC2CC2)C1`, the Ratio Ki in experiment [1] came to 14; in experiment [2] it was 3.8. The results for the inhibition constant Ki in experiment [3], in experiment [4] and in experiment [5] were 2.28 nM, 32.9 nM and 8.62 nM, respectively.

`CN(C(=O)/C=C/c1ccoc1)[C@@H]1CC[C@@]2(O)[C@H]3CC4=C(CC(=O)CC4)[C@@]2(CCN3CC2CC2)C1`: the values for the Ratio Ki in experiment [1] and in experiment [2] were 5.1 and 3.5, respectively. In addition, the Ki in experiment [3] was 14.5 nM; in experiment [4], 74.2 nM; in experiment [5] it was 51.1 nM.

With `CN(C(=O)/C=C/c1ccoc1)[C@H]1CC[C@@]2(O)[C@H]3Cc4ccccc4[C@@]2(CCN3CC2CC2)C1`, the values for the Ratio Ki in experiment [1] and in experiment [2] were 19 and 22, respectively. The Ki turned out to be 0.303 nM in experiment [3], 5.65 nM in experiment [4] and 6.52 nM in experiment [5].

As to `CN(C(=O)/C=C/c1ccoc1)[C@H]1CC[C@@]2(O)[C@H]3CC4=C(CCCC4)[C@@]2(CCN3CC2CC2)C1`, the Ratio Ki in experiment [1] is 13; in experiment [2] it was 71. Moreover, the Ki in experiment [3] was 2.06 nM; in experiment [4] it was 26.4 nM; in experiment [5], 147 nM.

With `CN(C(=O)/C=C/c1ccoc1)[C@@H]1CC[C@@]2(O)[C@H]3CC4=C(C[C@@H](O)CC4)[C@@]2(CCN3CC2CC2)C1`, the Ratio Ki in experiment [1] is 328; in experiment [2], 49. Further, the Ki in experiment [3] was 0.711 nM; in experiment [4] it was 233 nM; in experiment [5] it was 34.7 nM.

Source of the values: ChEMBL document CHEMBL2202959, “Essential structure of opioid κ receptor agonist nalfurafine for binding to the κ receptor 3: synthesis of decahydro(iminoethano)phenanthrene derivatives with an oxygen functionality at the 3-position and their pharmacologies” (Bioorg Med Chem Lett, 2012).
